Laboratory results reported in US6057153A, “Stabilized external guide sequences” (Yale University, priority 1997, dated 2000).

Experiments:
[1] = APL patients, cited from earlier work
NB4/D5 cells = experiment: MTT proliferation assay; assay type: cell-based, human; settings: for effect on cell growth as measured by MTT assay: NB4/D5 cells, 1 to 10 μM EGS, daily replacement; for concentration above which dose dependent inhibition of NB4 cell growth was observed: NB4 cells, MTT assay
Description: Cell culture testing: NB4 cells, a maturation inducible cell line with t(15;17) translocation marker isolated from an acute promyelocytic leukemia patient (Lanotte et al. (1991)) was used to test the antiproliferative activity of EGSs targeted to PML-RARα. These cells respond to maturation-inducing effects of all-trans retinoic acid. One subclone of NB4 cells, NB4/D5, which uniformly responds to retinoic acid (Ahn et al. (1995)), was used for cell culture testing. The NB4 cells were grown in RPMI media containing 10% fetal bovine serum (Intergen, Purchase, N.Y.), 100 U/ml penicillin, 200 μg/ml streptomycin, and 20 mM glutamine with pCO2 of 5% at 37° C.
All treatments were done in triplicate and experiments were repeated more than once. NB4/D5 cells which were maintained in logarithmic growth phase were seeded at a density of 1×10^5 cells in 1 ml of RPMI medium in a 24 well tissue culture plate. Increasing concentrations of EGS were added to the cells. More than 90% of the media was removed every 24 hours and replaced with fresh media containing the same concentration of EGS. An aliquot of the cells was removed every 24 hours and an MTT proliferation assay (as described by Mosmann et al., Journal of Immunological Methods, 65:55 (1983)) was performed on these cells.

[2] = test system: APL RNA (PML-RARα fusion junction); experiment: Test tube cleavage assay; assay type: biochemical; settings: 0.25 μM EGS, RNase P from HeLa cells
Description: Test tube cleavage assay: Three nanograms of linearized pAPL-3Z3 plasmid with HindIII restriction enzyme was transcribed as described in Example 1 in presence of ^32 P-ATP for 30 minutes 0.25 μM (final concentration) of EGS and 2 μl of a purified preparation of RNase P from HeLa cells (Bartkiewicz et al., Genes and Development, 3:488-499 (1989)) was added to the transcription reaction during the transcription. The reaction products were separated on a denaturing polyacrylamide gel and visualized using a Molecular Dynamics PHOSPHORIMAGER™.

HBV RNA = experiment: RNase protection assay after transfection of pol III EGS expression vectors; assay type: cell-based; settings: HepG2.2.15 cells transfected with EGS plasmids
Text: Cloning of EGS 2 and EGS 62: pREP9 (Invitrogen, San Diego, Calif.), an Epstein-Barr virus-based vector (Yates et al., Nature, 313:812-815 (1985)), was cut with XbaI and KpnI to remove the RSV LTR promoter sequence in the vector and a 244 nucleotide human U6 promoter (hU6; from nucleotide +1 to -244) was cloned into this region. cDNAs corresponding to EGS 2 and EGS 62 (see FIGS. 19 and 20, respectively) were synthesized on an Applied Biosystems DNA synthesizer, purified and cloned downstream of the hU6 promoter between KpnI and BamHI. The EGS sequence and the hU6 promoter sequence were excised using XbaI and BamHI and subcloned in pCEP4 (Invitrogen, San Diego, Calif.) that had been digested with BglII and NheI. […]
All plasmids were amplified in bacteria and the plasmid DNAs were purified using Qiagen (Qiagen Inc., Chatsworth, Calif.) columns. […] The protected fragments were separated on a 6% denaturing polyacrylamide gel, and the radioactivity associated with the protected bands were quantitated using a Molecular Dynamics PHOSPHORIMAGER™. The quantitation of the GAPDH RNA was used to normalize the samples.

[3] = Nuclease resistance studies in 50% human serum; assay type: in vitro ADME; settings: 37° C., 24 h
Description: Nuclease resistance studies--100 μl of EGS oligonucleotides (5 μM), containing a trace of 5'-end-labeled oligomers, were incubated at 37° C. for different time periods (0-24 h) with 50% human serum (Sigma, S-7023). 20 μl aliquots were diluted to 100 μl with RNase-free water, phenol/chlorform extracted, and ethanol precipitated. The residue was resuspended in 10 μl of TE and 10 μl of 2× gel loading buffer containing 98% formamide, 10 mM1 EDTA and 0.1% bromophenol blue. The mixture was heated to 85° C. for 1 min, quickly cooled on ice and frozen at -20° C. prior to electrophoresis on 15% polyacrylamide/8 M urea gels. Gels were subsequently scanned on a Molecular Dynamics PHOSPHORIMAGER™, and the stability profile for each, oligomer was estimated from the ratio of the remaining intact materials versus all radio-labeled materials (intact oligomers plus degradation products). Stability studies of non radio-labeled EGS oligomers using capillary gel electrophoresis were also carried out according to the method of Leeds et al. (15).

target RNA SUB-156 = experiment: RNase P-mediated cleavage, EGS-multiple turnover conditions; assay type: biochemical, hepatitis B virus (HBV); settings: 5-fold of RNA target over EGS
Description: FIG. 31 is a graph of a time-course of cleavage with selected EGSs under EGS-multiple turnover conditions. Experiments were conducted under similar conditions as that used in FIG. 30 with the exception that the molar ratio between ^32 P-5'-end-labeled target RNA SUB-156 and the respective EGSs was 5:1. Saturing amounts of RNase P were employed. Aliquots were withdrawn from the cleavage reaction at different time points, quenched in formamide loading buffer and loaded on 15% polyacryladmide/8 M urea gels. Absolute percentages of cleavage are expressed on the Y-axis. EGS-159 (.circle-solid.) is the all-RNA EGS control and EGS-407 (.smallcircle.) is one of the lead modified prototypes.
(§1) For EGS-single turnover conditions, the final concentrations were 200 nM for EGS and 20(nM for the RNA substrate. For EGS-multiple turnover conditions, the final concentrations were 200 nM for the RNA substrate and 40 nM for EGS. When determination of the time-course was required, the reaction volume was increased to 40 μl. Aliquots of 5-8 μl were removed from the reaction mixture at different time points (e.g. 1, 5, 15, 30 and 60 min), quenched in formamide loading buffer, and loaded onto 15% polyacrylamide/8 M urea gels. Quantitation of the cleavage product and the remaining RNA substrate was achieved using a Molecular Dynamics PHOSPHORIMAGER™.

[4] = test system: EGS/target RNA complex (SUB-156) with human RNase P; experiment: Measurements of kcat and A50; assay type: biochemical, hepatitis B virus (HBV)
Description: Measurements of kcat, Km and A50 --Measurements of these kinetic parameters were carried out using conditions similar to those described above (e.g. identical cleavage buffers). For kcat measurements, aliquots were taken every 30-60 s for the first 5 min. The logarithm of the percentage of cleavage (Abs. Cleavage %) was plotted against time, and the data points were fitted using a linear least-squaresanalysis. The slope represents kcat values. For Km measurements,a fixed amount of RNase P (0.6 μl) was used, while substrate concentrations (i.e. EGS/target RNA complex) varied from 25 to 500 nM. Several EGS/target RNA ratios were assayed including 1:1, 5:1 and 10:1. Attempts were made to obtain Km and Vmax values from linear Lineweaver-Burk or Eadie-Hofstee plots. The scattered values could not be fit as a hyperbolic function. For A50 measurements, the ratio between EGS and target RNA was kept as 10:1. Various amounts of RNase P (0.3 to 3 μl) were used to conduct a 60-min cleavage reaction. Percentage of cleavage was plotted against [RNase P] in μl, and 50% cleavage values (A50) were determined using a non-linear, least-squares routine (Kaleidagraph, Synergy Software). The amount of RNase P required to reach A50 was then converted to enzyme unit. 1 unit of RNase P represents the amount of RNase P that catalyzes the conversion of 1 pmol of tRNA^Tyr precursor to cleavage products per minute per μl of the enzyme preparation. 1 unit of RNase P preparation used for this study equals 28.57 μl.

Substrate RNA (SUB-156) = experiment: RNase P-mediated cleavage assay, single turnover conditions; assay type: biochemical, hepatitis B virus (HBV); settings: 200 nM EGS, 20 nM substrate, saturating RNase P, 60 min
Description: RNase P-mediated cleavage assay--Human RNase P was purified from HeLa cells according to the published procedures (14). Substrate RNA (SUB-156, FIG. 24) was 5'-end labeled using T4 polynucleotide kinase and [γ-^32P]ATP. The labeling mixture was then heated to 85° C. for 1 min, diluted with RNase-free water, and purified by a MICROSPIN™ G-25 column (Pharmacia) according to the manufacturer's instructions. Cleavage reactions were conducted in a reaction buffer containing 50 mM Tris-HCl (pH 7.4), 25 mM KCl, 10 mM MgCl2 and 0.1 mM EDTA. EGS oligomers and ^32 p-5'-end-labeled RNA substrate were heated in the reaction buffer without MgCl2 to 85° C. for 1 min and then slowly cooled to room temperature. The cleavage reaction was initiated by adding 2 μl of 100 mM MgCl2 and 3 μl of RNase P (enzyme activity for this preparation: cleavage of 0.035 pmol of tRNA^Tyr precursor min^-1 μl^-1). The final reaction volume was 20 μl and the reaction was incubated at 37° C. for 60 min. […] For each sample, cleavage reactions were performed in duplicates and the average values were used. To ensure reproducibility, cleavage assays for each EGS were also repeated in two separate experiments. The all-RNA EGS-159 was used as the reference sample and its cleavage values were counted as 100%. Cleavage percentages of all other EGSs were normalized against EGS-159 (Rel. Cleavage %) except in FIG. 30 and FIG. 31 where absolute cleavage percentages (Abs. Cleavage %) were plotted.
as §1
General considerations--To select lead nuclease-resistant oligonucleotide prototypes as external guide sequences among many possible modifications, a reliable yet rapid in vitro cleavage assay for routine screening was used. Human RNase P, a ribonucleoprotein, is composed of a 340-nt H1 RNA component and one or more proteins (for recent review, see Ref. 16). A 3-step screening strategy was devised: 1) All analogues once synthesized were tested by a fast qualitative cleavage assay under single turnover conditions with 10-fold excess of EGS over target RNA substrate for 60 min. […] This was the best cleavage condition used in this study. Any analogue with a reasonable activity (e.g. more than 5% cleavage) would not be missed, under these circumstances, due to the high detection sensitivity provided by PHOSPHORIMAGER™. 2) Promising analogues were then assayed for stability in 50% human serum.

## CC1=C(/C=C/C(C)=C/C=C/C(C)=C/C(=O)O)C(C)(C)CCC1 [TRETINOIN, all-trans retinoic acid]
[1]; several published studies
  patients in whom remission was induced: about 48%
[1]
  duration of the remission, average: 3.5 months

## APL 1009: EGS SEQ ID NO. 12 targeted to the fusion junction of PML-RARα (guide GUCUCAAGAAGGUUCGAAUCCUUCGGCUGCC; chemistry not given here)
NB4/D5 cells
  effect on cell growth as measured by MTT assay: inhibitory to cell growth
  concentration above which dose dependent inhibition of NB4 cell growth was observed: above 3 μM
[2]
  cleavage of the APL RNA at the fusion junction: induced cleavage

## EGS 2A: SEQ ID NO. 27, anti-HBV EGS expressed from hU6 pol III vector (guide GTGCTCGCTTCGGCAGCACTATACGCAGCGATCCGGGTTCCCGGCCAGGACACTATTTTT)
HBV RNA
  inhibition of HBV RNA expression (ranking): maximal inhibition

## EGS-407: lead prototype, U54 replaced with thymidine, SEQ ID NO. 46 (AGAUGAUAGAAGGTUAGAAUCCUUCACGCCGC; guide RNA; Thymidine at tRNA position 54, rest of chemistry not given here)
[3]
  degradation in 50% human serum: no degradation products were detected
Target RNA SUB-156
  turnover over a course of 60 min: about 3 times
[4]; 60 min, EGS in 10-fold excess relative to the RNA target
  A50 (amount of RNase P required to achieve 50% cleavage): 0.053 unit
[4]; single turnover, first 5 min
  kcat: indistinguishable from that of the all-RNA control
Substrate RNA (SUB-156)
  RNase P-mediated cleavage activity compared to the all-RNA control: promising

## APL A20: EGS SEQ ID NO. 11 targeted to the fusion junction of PML-RARα (guide GGGUCUCAGGCCCGGGUUCGAUUCCCGGUGGCUGC; chemistry not given here)
NB4/D5 cells
  effect on cell growth as measured by MTT assay: inhibitory to cell growth
  concentration above which dose dependent inhibition of NB4 cell growth was observed: above 3 μM
[2]
  cleavage of the APL RNA at the fusion junction: induced cleavage
